Experimental data reported in US20050037446A1, “Agents that recognize src when phosphorylated at serine 17” (priority 2001, published 2005).

System: Ras
Test: Ras activation affinity assay (GST-Raf1-RBD), Hek293 cells
Type: cell-based
Procedure: Endogenous GTP-loaded Ras was determined using a Ras activation affinity assay as follows. Hek293 cells were grown, stimulated, and lysed as described above. Activated Ras was assayed as previously described (Schmitt and Stork, Mol. Cell. Biol. 21:3671-83, 2001). Briefly, equivalent amounts of lysates from stimulated cells were incubated with GST-Rafl-RBD (Ras-binding domain) as specified by the manufacturer (Upstate Biotechnology, Lake Placid, N.Y.). Proteins were eluted with 2×Laemmli buffer and applied to a 12% SDS polyacrylamide gel. Proteins were transferred to a PVDF membrane, blocked at room temperature for 1 hour in 5% milk and probed with either Ras or Flag antibody overnight at 4° C., followed by an HRP-conjugated anti-mouse secondary. Proteins were detected using enhanced chemiluminescence.
Mutation of tyrosine 527 of Src to phenylanaline (Y527F) produces a constitutively active (oncogenic) Src by eliminating the inhibitory phosphorylation at Y527 (Xu et al. Mol. Cell. 3(5): 629-38, 1999; Brown and Cooper, Biochim. Biophys. Acta 1287(2-3): 121-49, 1996). To determine the effect of this mutant on Ras and Rap1 activation, Hek293 cells were transfected with Flag-tagged Rap1 or Flag-tagged Ras, in the presence or absence of pcDNA3, SrcY527F, SrcS17A/Y527F, SrcS17D/Y527F, CBR, or Cb1-ct using the methods described above. […]

CC(C)NCC(O)c1ccc(O)c(O)c1 (stereo not shown) [isoproterenol]
Activation of endogenous Ras: activated endogenous Ras
